Measurements taken from EP2695950A1, “Markers for responsiveness to an inhibitor of the fibroblast growth factor receptor” (Blackfield AG, priority 2012, dated 2014).
Read-outs that look alike come from different tables or passages of the source.

Key:
[1] = test system: Tumors derived from NIH3T3 cells expressing KRas G12V; test: Xenograft mouse model, tumor volume; format: in vivo, mice; settings: Figure 3; KRas G12V (positive control); 10mg/kg daily by oral gavage
Method: (§1) All animal procedures were approved by the local animal protection committee and the local authorities. Xenograft-experiments were performed in 10 to 15 week old male athymic NMRI-nude-mice (Janvier, Europe). Mice were hold in a 12 hour light-dark-cycle. They got water and standard food ad libitium.
(§2) NIH3T3-cells transduced with empty Vector (puro), empty Vector (puro+zeo), KRAS G12V, FGFR1-α, FGFR1-β, FGFR1-β + cMyc were cultured as described before. For implantation they were resuspended in plain RPMI in a concentration of 50*10^6 cells/ml. 5*10^6 cells were injected subcutaneously in mice, under 2.5% Isolflurane-anaesthesia. Tumorgrowth was monitored every 2nd day by calimetric measurement. Tumorvolumes were calculated by V= […].
(§3) Therapy was started when tumors reached a size of 100mm^3. They were treated daily by oral gavage either with 10mg/kg NVP-BGJ 398 (Novartis) dissolved in vehicle (PEG300, 5%Glucose; 2:1) or with the vehicle-detergent alone. After 8 (KRas), 12 (FGFR1-α and FGFR1-β + cMyc), days of therapy mice were sacrificed by intraperitoneal injection of Ketamin/Xylazine (300/60 mg/kg) and tumors were resected and fixed in 4% formaldehyde for histology.

[2] = test system: Tumors derived from NIH3T3 cells expressing two different splice variants of FGFR1 plus Myc; test: Xenograft mouse model, tumor volume; format: in vivo, mice
Method: as §1, §2, §3

[3] = test system: Tumors derived from NIH3T3 cells expressing only FGFR1; test: Xenograft mouse model, tumor volume; format: in vivo, mice
Method: as §1, §2, §3

[4] = test system: Tumors derived from NIH3T3 cells expressing EML4-Alk; test: Xenograft mouse model, tumor volume; format: in vivo, mice; settings: Figure 6; EML4-Alk (positive control)
[5] = test system: FGFR1-amplified and FGFR1 non-amplified cell lines
[6] = test system: H1581 cell line with Myc downregulated (shMyc); settings: Figure 12, different concentrations
Method: (§4) All compounds were purchased from commercial suppliers, dissolved in DMSO, and stored at - 20°C. Cells were plated into sterile 96-- - well microtiter plates using a multichannel pipette and cultured overnight. Compounds were then added in serial dilutions. Cellular viability was determined after 96 hours of treatment by measuring cellular ATP content using the CellTiter-- Glo Assay (Promega). Plates were measured on a Mithras LB 940 Plate Reader (Berthold Technologies). GI50 values were determined using the following R package (Frommolt P, Thomas RK, 2008, Standardized high-- - throughput evaluation of cell-- - based compound screens. BMC Bioinformatics. 9:475)

H1581 cell line = settings: Figure 12; different concentrations
Method: as §4

[7] = Figure 3, FGFR1 plus Myc, 10mg/kg daily by oral gavage

Row | SMILES | tumor size [1] | tumor disappearance [2, 7] | tumor volume [2, 7] | tumor volume ([2]; Figure 5, tumor with FGFR1 and c-myc expression, treated mouse) | tumor size ([3]; Figure 3, only FGFR1, 10mg/kg daily by oral gavage) | tumor volume ([3]; Figure 5, tumor expressing only FGFR1, treated mouse) | tumor volume ([3]; Figure 6, two different splice variants of FGFR1) | tumor volume [4] | IC50 values ([5]; Figure 8, cell lines expressing high amounts of FGFR and Myc) | IC50 values ([5]; Figure 9, cell lines H1581 and A427, high FGFR, higher FGFR1β/FGFR1α ratio, high Myc expression) | response to FGFR inhibition [6] | response to FGFR inhibition (H1581 cell line)
1 | CCN1CCN(c2ccc(Nc3cc(N(C)C(=O)Nc4c(Cl)c(OC)cc(OC)c4Cl)ncn3)cc2)CC1 [BGJ398] | strong tumor growth | disappeared within ten days of treatment | strong reduction of tumor volume | completely disappeared after ten days of treatment | stable disease | did not shrink and even little grew | stable disease under treatment | increase in tumor volume |  |  |  | 
2 | CCN(CC)CCCCNc1ncc2cc(-c3cc(OC)cc(OC)c3)c(NC(=O)NC(C)(C)C)nc2n1 [PD173074] |  |  |  |  |  |  |  |  | lower IC50 values | lower IC50 values | less response | highly sensitive/responsive
